Values after ≈ are worked out from the molar mass of the structure shown. Like-named read-outs stand apart in the source and are kept apart here.
How the values were obtained:
[1] = system: Candida albicans ATCC 10231; assay: antifungal activity in vitro, serial dilution in RPMI 1640; format: cell-based
Method: (§1) For the determination of antifungal activity in vitro we used method of serial dilution in buffered medium RPMI 1640, pH 7.0, in a 96-wells microplates, according to the standard procedure (National Committee for Clinical Laboratory Standards. Reference method for broth dilution antifungal susceptibility testing of yeast, approved standard, 2nd ed. M27-A2 vol. 22 Wayne, Pa., 2002). The optical density of cells suspension was measured using a microplates reader (Victor^3, Perkin-Elmer) at the wavelength λ=531 nm (A531). On the basis of obtained results the diagrams of relation between A531 values and concentration of examined compound were made.

[2] = system: Candida glabrata DSM 11226; assay: as above; format: cell-based
Method: as §1

Candida krusei DSM 6128 = assay: as above; format: cell-based
Method: as §1

[3] = system: Candida lusitaniae DSM 70102; assay: as above; format: cell-based
Method: as §1

[4] = system: Candida tropicalis KKP 334; assay: as above; format: cell-based
Method: as §1

[5] = system: Saccharomyces cerevisiae ATCC 9763; assay: as above; format: cell-based; settings: RPMI 1640, pH 7.0; for Antifungal activity IC50: Saccharomyces cerevisiae ATCC 9763 (first head over MIC and IC50); for Antifungal activity MIC: Saccharomyces cerevisiae ATCC 9763
Method: as §1

Human erythrocytes = assay: hemotoxicity determination (hemolytic activity); format: cell-based
Method: The hemotoxicity determination was carried out by the serial dilutions method, according to the procedure described earlier (Slisz, M., et al., E., J Antibiot 57: 669-678 (2004). Human erythrocytes were suspended in the solution of saline to obtain a cell density of suspension 2×10^7/ml. Suitable amounts of diluted solutions of compounds were added to the cell suspension in tubes and were incubated at 37° C. for 30 minutes and then centrifuged (1700×g, 10 min, 4° C.). The concentration of hemoglobin in supernatant after centrifugation of erythrocytes suspension were determined by measuring the absorbance at wavelength λ=540 nm (A540). The maximum level of hemolysis was obtained after incubation of cells suspension in the presence of 0.1% Tritone X-100 (control sample). […] From these graphs, the EH50 values were read which are the interpolated concentrations of compound, for which the A540 value is exactly 50% of the A540 value measured for the control sample.

[6] = system: Aspergillus niger LOCK E201; assay: antifungal activity in vitro, broader spectrum; format: cell-based
Method: as §1
(§2) Obtained results are presented below in tables 2A and 2B.

Candida albicans SC 5314 = assay: antifungal activity in vitro, broader spectrum; format: cell-based
Method: as §1, §2

Candida arborea KKP 319 = assay: antifungal activity in vitro, broader spectrum; format: cell-based
Method: as §1, §2

[7] = system: Candida dubliniensis CBS 7987; assay: antifungal activity in vitro, broader spectrum; format: cell-based
Method: as §1, §2

[8] = system: Candida lipolytica KKP 322; assay: antifungal activity in vitro, broader spectrum; format: cell-based
Method: as §1, §2

[9] = system: Candida parapsilosis DSM 5784; assay: antifungal activity in vitro, broader spectrum; format: cell-based
Method: as §1, §2

[10] = system: Candida pseudotropicalis KKP 324; assay: antifungal activity in vitro, broader spectrum; format: cell-based
Method: as §1, §2

[11] = system: Candida quilliermondii DSM 11947; assay: antifungal activity in vitro, broader spectrum; format: cell-based
Method: as §1, §2

[12] = system: Candida stellatoidea CBS 1905; assay: antifungal activity in vitro, broader spectrum; format: cell-based
Method: as §1, §2

[13] = system: Trichoderma viride LOCK E159; assay: antifungal activity in vitro, broader spectrum; format: cell-based
Method: as §1, §2

[14] = system: Candida albicans clinical strain B3; assay: antifungal activity against MDR fungal strains and parents; format: cell-based; settings: C. albicans B3, fluconazole sensitive, parent strain for B4
Method: as §1

[15] = system: Candida albicans clinical strain B4 (CaMdr1p); assay: as above; format: cell-based; settings: C. albicans B4 (CaMdr1p), fluconazole-resistant
Method: as §1

[16] = system: Candida albicans clinical strain F2; assay: as above; format: cell-based; settings: C. albicans F2, fluconazole sensitive, parent strain for F5
Method: as §1

[17] = system: Candida albicans clinical strain F5 (CaMdr1p); assay: as above; format: cell-based; settings: C. albicans F5 (CaMdr1p), fluconazole-resistant
Method: as §1

[18] = system: Candida albicans clinical strain Gu4; assay: as above; format: cell-based; settings: C. albicans Gu4, fluconazole sensitive, parent strain for Gu5
Method: as §1

[19] = system: Candida albicans clinical strain Gu5 (CaCdr1p, CaCdr2p); assay: as above; format: cell-based; settings: C. albicans Gu5 (CaCdr1p, CaCdr2p), fluconazole-resistant
Method: as §1

[20] = system: Candida albicans strain 5674 (CaCdr1p, CaCdr2p); assay: as above; format: cell-based; settings: C. albicans 5674 (CaCdr1p, CaCdr2p)
Method: as §1

[21] = system: Candida albicans strain STY31; assay: as above; format: cell-based; settings: C. albicans STY31, 5674 derivative, deletion of CDR1 and CDR2
Method: as §1

[22] = system: Candida albicans strain STY7 (CaCdr1p); assay: as above; format: cell-based; settings: C. albicans STY7 (CaCdr1p), 5674 derivative, deletion of CDR2
Method: as §1

CCRF-CEM cells = assay: cytotoxic activity against mammalian cells in tissue culture (MTT); format: cell-based, human
Method: (§3) All media contained 100 μg/ml of penicillin G and streptomycin. 24-wells microplates containing appropriate medium were inoculated with the cells in amount of 1.2×10^4 cells/well and allowed to stand overnight. Next, tested compounds as solution in dimethylsulfoxide (DMSO) were added in volume of 10 μl (serial 2× dilutions). To control well 10 μl of DMSO was added. Microplates with cell suspensions were incubated for 120 h at temperature 37° C. at atmosphere of 95%/5% CO2. After incubation, to all wells 200 μl of solution of 3-(4,5-dimethyltiazole-2-yl)-2,5-diphenylotetrazole bromide (MTT) in PBS (4 mg/ml) was added and plates were further incubated for 4 h at 37° C. Next, to dissolve crystals of formazane 1 ml of DMSO was added and absorption of solutions was measured at the wavelength λ=540 nm (A540), using a microplates reader (Victor^3, Perkin-Wallac). […] From these graphs IC50 values were read, that is concentration of tested compound in the presence at which A540 value is half of A540 value measured in the control sample.

HepG2 cells = assay: as above; format: cell-based, human
Method: as §3

LLC-PK1 cells = assay: as above; format: cell-based, pig
Method: as §3

Compound	Antifungal activity MIC [1] [µg/mL]	Antifungal activity MIC [2] [µg/mL]	Antifungal activity MIC (Candida krusei DSM 6128) [µg/mL]	Antifungal activity MIC [3] [µg/mL]	Antifungal activity MIC [4] [µg/mL]	Antifungal activity IC50 [5] [µg/mL]	Antifungal activity MIC [5] [µg/mL]	Hemotoxi EH50 (Human erythrocytes) [µg/mL]	Antifungal activity MIC [6] [µg/mL]	Antifungal activity MIC (Candida albicans SC 5314) [µg/mL]	Antifungal activity MIC (Candida arborea KKP 319) [µg/mL]	Antifungal activity MIC [7] [µg/mL]	Antifungal activity MIC [8] [µg/mL]	Antifungal activity MIC [9] [µg/mL]	Antifungal activity MIC [10] [µg/mL]	Antifungal activity MIC [11] [µg/mL]	Antifungal activity MIC [12] [µg/mL]	IC50 (cytotoxic activity) (CCRF-CEM cells) [µg/mL]	IC50 (cytotoxic activity) (HepG2 cells) [µg/mL]	IC50 (cytotoxic activity) (LLC-PK1 cells) [µg/mL]	also measured
C[C@@H]1[C@H](O)[C@@H](C)/C=C/C=C/C=C/C=C/C=C/C=C/C=C/[C@H](O[C@@H]2O[C@H](C)[C@@H](O)[C@H](NC(=O)[C@@H](N)Cc3ccccc3)[C@@H]2O)C[C@@H]2O[C@](O)(C[C@@H](O)C[C@@H](O)[C@H](O)CC[C@@H](O)C[C@@H](O)CC(=O)O[C@H]1C)C[C@H](O)[C@H]2C(=O)O [Compound A30, N-L-phenylalanylamphotericin B]	2	2	2	2	2	0.90	2	>100	2	1	4	1	2	2	1	1	1	>100	>100	>100	Antifungal activity MIC [13]: 4 µg/mL; Antifungal activity MIC [14]: 0.5 µg/mL; Antifungal activity MIC [15]: 2 µg/mL; Antifungal activity MIC [16]: 2 µg/mL; Antifungal activity MIC [17]: 4 µg/mL; Antifungal activity MIC [18]: 1 µg/mL; Antifungal activity MIC [19]: 2 µg/mL; Antifungal activity MIC [20]: 0.5 µg/mL; Antifungal activity MIC [21]: 1 µg/mL; Antifungal activity MIC [22]: 1 µg/mL
N-(4-N,N-diethylaminobenzyl)amphotericin B [Compound A19]	1	2	2	1	1	0.53	1	>100	1	0.5	2	0.5	2	2	0.5	2	1	>100	>100	>100	Antifungal activity MIC [13]: 4 µg/mL; Antifungal activity MIC [14]: 1 µg/mL; Antifungal activity MIC [15]: 2 µg/mL; Antifungal activity MIC [16]: 2 µg/mL; Antifungal activity MIC [17]: 2 µg/mL; Antifungal activity MIC [18]: 1 µg/mL; Antifungal activity MIC [19]: 1 µg/mL; Antifungal activity MIC [20]: 1 µg/mL; Antifungal activity MIC [21]: 1 µg/mL; Antifungal activity MIC [22]: 1 µg/mL
C[C@@H]1[C@H](O)[C@@H](C)/C=C/C=C/C=C/C=C/C=C/C=C/C=C/[C@H](O[C@@H]2O[C@H](C)[C@@H](O)[C@H](NC(=S)NCCN3CCCC3)[C@@H]2O)C[C@@H]2O[C@](O)(C[C@@H](O)C[C@@H](O)[C@H](O)CC[C@@H](O)C[C@@H](O)CC(=O)O[C@H]1C)C[C@H](O)[C@H]2C(=O)O [Compound A27, N-{[3-(2-pyrrolidin-1-yl)ethyl]thioureidyl}amphotericin B]	2	4	4	2	2	0.75	2	>100	–	–	–	–	–	–	–	–	–	>100	>100	>100	–
C[C@@H]1[C@H](O)[C@@H](C)/C=C/C=C/C=C/C=C/C=C/C=C/C=C/[C@H](O[C@@H]2O[C@H](C)[C@@H](O)[C@H](NC(=O)[C@H](N)CC(=O)OC(C)(C)C)[C@@H]2O)C[C@@H]2O[C@](O)(C[C@@H](O)C[C@@H](O)[C@H](O)CC[C@@H](O)C[C@@H](O)CC(=O)O[C@H]1C)C[C@H](O)[C@H]2C(=O)O [Compound A35, N-D-(O^β-tert-butyl)asparagylamphotericin B]	4	4	4	2	4	1.40	4	–	–	–	–	–	–	–	–	–	–	–	–	–	Hemotoxi EH50 (Human erythrocytes; human erythrocytes, 37° C., 30 minutes): >100 µg/mL; IC50 (cytotoxic activity) (CCRF-CEM cells; CCRF-CEM, 120 h, MTT): >100 µg/mL; IC50 (cytotoxic activity) (HepG2 cells; HepG2, 120 h, MTT): >100 µg/mL; IC50 (cytotoxic activity) (LLC-PK1 cells; LLC-PK1, 120 h, MTT): 70.7 ± 2.3 µg/mL (≈ 64.5 µM)
C[C@@H]1[C@H](O)[C@@H](C)/C=C/C=C/C=C/C=C/C=C/C=C/C=C/[C@H](O[C@@H]2O[C@H](C)[C@@H](O)[C@H](NC(=S)NCCN3CCOCC3)[C@@H]2O)C[C@@H]2O[C@](O)(C[C@@H](O)C[C@@H](O)[C@H](O)CC[C@@H](O)C[C@@H](O)CC(=O)O[C@H]1C)C[C@H](O)[C@H]2C(=O)O [Compound A24, N-{[3-(2-morpholin-1-yl)ethyl]thioureidyl}amphotericin B]	2	4	4	2	2	1.13	2	>100	–	–	–	–	–	–	–	–	–	80.9 ± 2.3 (≈ 73.8 µM)	>100	>100	–

— patent US9745335B2 (Blirt S.A., priority 2012, dated 2017)
